Measured values as given in patent publication US20220119354A1, “DIAMINO-SUBSTITUTED PYRIDINES AND PYRIMIDINES AS HERBICIDES” (FMC Corporation, priority 2019, published 2022).

Assays:
Type in all cases: in vivo
[1] = test system: barnyardgrass (Echinochloa crus-galli); assay: Test A preemergence, barnyardgrass; details: 0 to 100 scale, 0 is no effect, 100 is complete control
How it was run: (§1)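 0–100 visual control rating, ~10 d post-treatment, greenhouse. Pre = directed soil spray on seeded loam/sand; post = spray at 1–2 leaf stage. Surfactant-containing solvent formulation.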

kochia (Kochia scoparia) [2] = assay: Test A preemergence, kochia; details: 0 to 100 scale, 0 is no effect, 100 is complete control
How it was run: as §1

[3] = test system: ragweed (common ragweed, Ambrosia elatior); assay: Test A preemergence, ragweed; details: 0 to 100 scale, 0 is no effect, 100 is complete control
How it was run: as §1

[4] = test system: ryegrass, Italian (Lolium multiflorum); assay: Test A preemergence, Italian ryegrass; details: 0 to 100 scale, 0 is no effect, 100 is complete control
How it was run: as §1

[5] = test system: foxtail, giant (Setaria faberii); assay: Test A preemergence, giant foxtail; details: 0 to 100 scale, 0 is no effect, 100 is complete control
How it was run: as §1

[6] = test system: pigweed (Amaranthus retroflexus); assay: Test A preemergence, pigweed; details: 0 to 100 scale, 0 is no effect, 100 is complete control
How it was run: as §1

[7] = test system: barnyardgrass (Echinochloa crus-galli); assay: Test A postemergence, barnyardgrass; details: 0 to 100 scale, 0 no effect, 100 complete control
How it was run: as §1

kochia (Kochia scoparia) [8] = assay: Test A postemergence, kochia; details: 0 to 100 scale, 0 no effect, 100 complete control
How it was run: as §1

[9] = test system: ragweed (common ragweed, Ambrosia elatior); assay: Test A postemergence, ragweed; details: 0 to 100 scale, 0 no effect, 100 complete control
How it was run: as §1

[10] = test system: ryegrass, Italian (Lolium multiflorum); assay: Test A postemergence, Italian ryegrass; details: 0 to 100 scale, 0 no effect, 100 complete control
How it was run: as §1

[11] = test system: foxtail, giant (Setaria faberii); assay: Test A postemergence, giant foxtail; details: 0 to 100 scale, 0 no effect, 100 complete control
How it was run: as §1

[12] = test system: pigweed (Amaranthus retroflexus); assay: Test A postemergence, pigweed; details: 0 to 100 scale, 0 no effect, 100 complete control
How it was run: as §1

[13] = test system: wheat (Triticum aestivum); assay: Test A postemergence, wheat; details: 0 to 100 scale, 0 no effect, 100 complete control
How it was run: as §1

corn (Zea mays) = assay: Test A postemergence, corn; details: 0 to 100 scale, 0 no effect, 100 complete control
How it was run: as §1

[14] = test system: blackgrass (Alopecurus myosuroides); assay: Test A postemergence, blackgrass; details: 0 to 100 scale, 0 no effect, 100 complete control
How it was run: as §1

[15] = test system: galium (catchweed bedstraw, Galium aparine); assay: Test A postemergence, galium; details: 0 to 100 scale, 0 no effect, 100 complete control
How it was run: as §1

rice (Oryza sativa) = assay: Test B flooded paddy test, rice; details: Flood, 250 g ai/ha, applied to paddy water, 2-leaf stage, visual evaluation after 13 to 15 d
How it was run: (§2)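 Plants grown to 2-leaf stage. Compounds applied directly into paddy water flooded 3 cm above soil, with that depth kept throughout. After 13–15 d in greenhouse, visual rating versus controls on a 0–100 scale (0 no effect, 100 complete control).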

[16] = test system: sedge, umbrella (small-flower umbrella sedge, Cyperus difformis); assay: Test B flooded paddy test, umbrella sedge; details: Flood, 250 g ai/ha, applied to paddy water, 2-leaf stage, visual evaluation after 13 to 15 d
How it was run: as §2

[17] = test system: ducksalad (Heteranthera limosa); assay: Test B flooded paddy test, ducksalad; details: Flood, 250 g ai/ha, applied to paddy water, 2-leaf stage, visual evaluation after 13 to 15 d
How it was run: as §2

[18] = test system: barnyardgrass (Echinochloa crus-galli); assay: Test B flooded paddy test, barnyardgrass; details: Flood, 250 g ai/ha, applied to paddy water, 2-leaf stage, visual evaluation after 13 to 15 d
How it was run: as §2

| SMILES | Barnyardgrass plant response rating ([1]; 125 g ai/ha) | Barnyardgrass plant response rating ([1]; 500 g ai/ha) | Kochia plant response rating (kochia (Kochia scoparia) [2]; 125 g ai/ha) | Kochia plant response rating (kochia (Kochia scoparia) [2]; 500 g ai/ha) | Ragweed plant response rating ([3]; 125 g ai/ha) | Ragweed plant response rating ([3]; 500 g ai/ha) | Ryegrass, Italian plant response rating ([4]; 125 g ai/ha) | Ryegrass, Italian plant response rating ([4]; 500 g ai/ha) | Foxtail, Giant plant response rating ([5]; 125 g ai/ha) | Foxtail, Giant plant response rating ([5]; 500 g ai/ha) | Pigweed plant response rating ([6]; 125 g ai/ha) | Pigweed plant response rating ([6]; 500 g ai/ha) | Plant response rating, Barnyardgrass ([7]; 125 g ai/ha) | Plant response rating, Barnyardgrass ([7]; 500 g ai/ha) | Plant response rating, Kochia (kochia (Kochia scoparia) [8]; 125 g ai/ha) | Plant response rating, Kochia (kochia (Kochia scoparia) [8]; 500 g ai/ha) | Plant response rating, Ragweed ([9]; 125 g ai/ha) | Plant response rating, Ragweed ([9]; 500 g ai/ha) | Plant response rating, Ryegrass, Italian ([10]; 125 g ai/ha) | Plant response rating, Ryegrass, Italian ([10]; 500 g ai/ha) | also measured |
| --- | --- | --- | --- | --- | --- | --- | --- | --- | --- | --- | --- | --- | --- | --- | --- | --- | --- | --- | --- | --- | --- |
| Cc1nc(NC(C)c2cc3ccccc3s2)nc(N)c1C(F)(F)F (stereo not drawn) [Compound 105] | 40 | 60 | 90 | 100 | 100 | 100 | 20 | 90 | 40 | 100 | 100 | 100 | 30 | 60 | 80 | 100 | 70 | 100 | 100 | 100 | Plant response rating, Foxtail, Giant ([11]; 125 g ai/ha): 0; Plant response rating, Foxtail, Giant ([11]; 500 g ai/ha): 60; Plant response rating, Pigweed ([12]; 125 g ai/ha): 0; Plant response rating, Pigweed ([12]; 500 g ai/ha): 60; Plant response rating, Wheat ([13]; 125 g ai/ha): 0; Plant response rating, Wheat ([13]; 500 g ai/ha): 0; Plant response rating, Corn (corn (Zea mays); 125 g ai/ha): 0; Plant response rating, Corn (corn (Zea mays); 500 g ai/ha): 0; Plant response rating, Blackgrass ([14]; 125 g ai/ha): 0; Plant response rating, Blackgrass ([14]; 500 g ai/ha): 0; Plant response rating, Galium ([15]; 125 g ai/ha): 90; Plant response rating, Galium ([15]; 500 g ai/ha): 90; Plant response rating, Rice (0 to 100 scale, 0 is no effect, 100 is complete control) (rice (Oryza sativa)): 0; Plant response rating, Sedge, Umbrella (0 to 100 scale, 0 is no effect, 100 is complete control) [16]: 0; Plant response rating, Ducksalad (0 to 100 scale, 0 is no effect, 100 is complete control) [17]: 0; Plant response rating, Barnyardgrass (0 to 100 scale, 0 is no effect, 100 is complete control) [18]: 0 |
| Cc1nc(NC(C)c2coc3ccccc23)nc(N)c1C(F)(F)F (stereo not drawn) [Compound 106] | 0 | 0 | 80 | 90 | 60 | 100 | 0 | 30 | 0 | 50 | 30 | 100 | 0 | 30 | 80 | 90 | 20 | 100 | 0 | 0 | Plant response rating, Foxtail, Giant ([11]; 125 g ai/ha): 0; Plant response rating, Foxtail, Giant ([11]; 500 g ai/ha): 0; Plant response rating, Pigweed ([12]; 125 g ai/ha): 70; Plant response rating, Pigweed ([12]; 500 g ai/ha): 100; Plant response rating, Wheat ([13]; 125 g ai/ha): 0; Plant response rating, Wheat ([13]; 500 g ai/ha): 0; Plant response rating, Corn (corn (Zea mays); 125 g ai/ha): 0; Plant response rating, Corn (corn (Zea mays); 500 g ai/ha): 0; Plant response rating, Blackgrass ([14]; 125 g ai/ha): 0; Plant response rating, Blackgrass ([14]; 500 g ai/ha): 0; Plant response rating, Galium ([15]; 125 g ai/ha): 70; Plant response rating, Galium ([15]; 500 g ai/ha): 80; Plant response rating, Rice (0 to 100 scale, 0 is no effect, 100 is complete control) (rice (Oryza sativa)): 0; Plant response rating, Sedge, Umbrella (0 to 100 scale, 0 is no effect, 100 is complete control) [16]: 0; Plant response rating, Ducksalad (0 to 100 scale, 0 is no effect, 100 is complete control) [17]: 0; Plant response rating, Barnyardgrass (0 to 100 scale, 0 is no effect, 100 is complete control) [18]: 0 |
| CC(Nc1ncc(S(C)(=O)=O)c(N)n1)c1cc2ccccc2s1 (stereo not drawn) [Compound 107] | 20 | 100 | 80 | 100 | 100 | 100 | 50 | 90 | 30 | 100 | 60 | 100 | 20 | 100 | 50 | 90 | 40 | 100 | 0 | 40 | Plant response rating, Foxtail, Giant ([11]; 125 g ai/ha): 10; Plant response rating, Foxtail, Giant ([11]; 500 g ai/ha): 60; Plant response rating, Pigweed ([12]; 125 g ai/ha): 80; Plant response rating, Pigweed ([12]; 500 g ai/ha): 100; Plant response rating, Wheat ([13]; 125 g ai/ha): 0; Plant response rating, Wheat ([13]; 500 g ai/ha): 30; Plant response rating, Corn (corn (Zea mays); 125 g ai/ha): 0; Plant response rating, Corn (corn (Zea mays); 500 g ai/ha): 30; Plant response rating, Blackgrass ([14]; 125 g ai/ha): 0; Plant response rating, Blackgrass ([14]; 500 g ai/ha): 80; Plant response rating, Galium ([15]; 125 g ai/ha): 70; Plant response rating, Galium ([15]; 500 g ai/ha): 80; Plant response rating, Rice (0 to 100 scale, 0 is no effect, 100 is complete control) (rice (Oryza sativa)): 0; Plant response rating, Sedge, Umbrella (0 to 100 scale, 0 is no effect, 100 is complete control) [16]: 75; Plant response rating, Ducksalad (0 to 100 scale, 0 is no effect, 100 is complete control) [17]: 70; Plant response rating, Barnyardgrass (0 to 100 scale, 0 is no effect, 100 is complete control) [18]: 45 |
